Data: patent publication EP0680964B1, “PYRROLO [3,2-e]INDOLE DERIVATIVES, PROCESS FOR THE PREPARATION THEREOF AND THEIR USE” (UNIVERSIDAD DE SANTIAGO DE COMPOSTELA, priority 1993, dated 1995)
Converted amounts (≈) assume the structure as drawn.

Key:
[1] = test system: P388 leukemic tumor model; experiment: P388 antitumoral model in vivo (survival time, i.p. treatment); parameters: species or system mice; settings: for %C/T: average survival of tested group/average survival of controls
Protocol: Normally, 1x10^6 cells in ascitic fluid was implanted i.p. in CD2F1 mice. Treatment with the agent tested i.p. began one day after the tumor had been implanted and it is continued daily up to a total of 5 injections for synthetic products and of 9 injections for raw natural products. The results are expressed as percentage of the control survival time.
CDFl mice weighing 18-22 gr (+/- 3 gr) were implanted on day 0 of the test period o.1 ml. of a dilution of 1.0x10^7 tumor cells coming from DBA/2N mice used for the propagation of the tumor.
On day 1 of the test period the animals were grouped at random in groups of six animals.Each group is weighed and the average weight is written down. Each compound to be tested in diluted in 4 levels of dosis for each multidose test as of the determination of the highest nontoxic dose (v.g. 400 mg/kg; 100 mg/kg; 10 mg/kg.)
Administration of the test compounds is started on day 1 using volumns of 1/2 drug injected i.p. Injections are given on days 1 to 9 of the test period, unless it is indicated to the contrary. The animals are weighed on day 5, which is the one which in this system is considered the day of toxicity. Toxicity in this test system is defined as: • A. 34 % deaths up to day 5 - acute toxicity • B. C/T<85% - chronic toxicity • C. A negative average of the weight change of the animals> 4 g up to day 5 - chronic toxicity
The data obtained upon testing the compounds in vivo in comparison with the P388 leukemic tumor model in mice are shown in the following table: […]

[2] = mice, therapeutic doses; cited from earlier work
P388 model = settings: cited from earlier work
A-549 = experiment: In vitro test, IC50 on A-549; format: cell-based; settings: Homo sapiens, A549; A-549, in vitro
From the text: (§1) On the other hand, the results of the tests in vitro carried out on compounds (IIIa) and (IIIb) were the following: […]

HT-29 = experiment: In vitro test, IC50 on HT-29; format: cell-based; settings: Homo sapiens; HT-29, in vitro
From the text: as §1

MEL-28 = experiment: In vitro test, IC50 on MEL-28; format: cell-based; settings: Homo sapiens, SK-MEL-28; MEL-28, in vitro
From the text: as §1

P-388 = experiment: In vitro test, IC50 on P-388; format: cell-based; settings: Mus musculus, P388; P-388, in vitro
From the text: as §1

Compound: COC(=O)c1cc2c(n1C)C(=O)C=C1N(C(=O)c3cc4cc(OC)c(OC)c(OC)c4[nH]3)CC3CC123 (centres unmarked) [(VI), methyl 2-(5,6,7-trimethoxy-1H-indole-2-carbonyl)-5-methyl-4-oxo-1,2,4,5,8a-hexahydrocyclopropa[c]pyrrolo[3,2-e]indole-7-carboxylate]
- %C/T ([1]; inject. dose 0.500 mg/kg): 210.9%
- Significant activity (class of %C/T) ([1]; inject. dose 0.500 mg/kg): ** (Significant activity (strong): C/T > =175%)

Compound: Cc1c[nH]c2c1[C@@]13C[C@@H]1CN(C(=O)c1cc4cc(NC(=O)c5cc6ccccc6o5)ccc4[nH]1)C3=CC2=O [Adocelesine]
- delayed lethality [2]: without provoking delayed lethality

Compound: O=C(Nc1ccc2[nH]c(C(=O)N3CC4CC45C3=CC(=O)c3ccccc35)cc2c1)c1cc2ccccc2[nH]1 (centres unmarked) [CBI-Ind2]
- results in the P388 model in vivo (P388 model): very good results

Compound: COc1c(O)c2c(c3cc(C(=O)N4CCc5c4c(O)c(OC)c4[nH]c(C(=O)N6CC7CC78C6=CC(=O)c6[nH]cc(C)c68)cc54)[nH]c13)CCN2C(N)=O (centres unmarked) [CC-1065]
- delayed lethality [2]: producing delayed deaths in mice at therapeutic doses

Compound: COC(=O)c1cn(C)c2c(O)cc3c(c12)C(CCl)CN3C(=O)c1cc2cc(NC(=O)c3cc4ccccc4o3)ccc2[nH]1 (centres unmarked) [Compound (III), methyl 6-{5-[(benzofuran-2-ylcarbonyl)-amino]1H-indole-2-carbonyl}-8-chloromethyl-4-hydroxy-3-methyl-3,6,7,8,tetrahydropyrrolo[3,2-e]indole-1-carboxylate]
- %C/T ([1]; inject. dose 0.500 mg/kg): >391.3%

Compound: COC(=O)c1cn(C)c2c(O)cc3c(c12)C(CCl)CN3C(=O)c1cc2cc(OC)c(OC)c(OC)c2[nH]1 (centres unmarked) [Compound (V), methyl 6-(5,6,7-trimethoxy-1H-indole-2-carbonyl)-8-chloromethyl-4-hydroxy-3-methyl-3,6,7,8-tetrahydropyrrololo[3,2-e]indole-1-carboxylate]
- %C/T ([1]; inject. dose 0.050 mg/kg): 133.9%
- Significant activity (class of %C/T) ([1]; inject. dose 0.050 mg/kg): ** (Significant activity (strong): C/T > =175%)

Compound: COC(=O)c1cn(C)c2c(OC(C)=O)cc3c(c12)C(CCl)CN3C(=O)c1cc2cc(NC(=O)c3cc4ccccc4o3)ccc2[nH]1 (centres unmarked) [IIIa, methyl 4-acetoxy-6-{5-[(benzofuran-2-yl-carbonyl)-amino]1H-indole-2-carbonyl}-8-chloromethyl-3-methyl-3,6,7,8-tetrahydropyrrolo[3,2-e]indole-1-carboxylate]
- IC50 (A-549): 0.05 ng/mL (≈ 0.0782 nM)
- IC50 (HT-29): 0.25 ng/mL (≈ 0.391 nM)
- IC50 (MEL-28): 0.25 ng/mL (≈ 0.391 nM)
- IC50 (P-388): 0.01 ng/mL (≈ 0.0156 nM)

Compound: methyl 2-[5-[(benzofuran-2-ylcarbonyl) amino]-1H-indol-2-carbonyl]-5-methyl-4-oxo,1,2,4,5,8,8,a-hexahydrocyclopropa[c]pyrrolo[3,2-e]indole-7-carboxylate [(IV)]
- %C/T ([1]; inject. dose 0.300 mg/kg): 251.1%
- Significant activity (class of %C/T) ([1]; inject. dose 0.300 mg/kg): ** (Significant activity (strong): C/T > =175%)
